Laboratory results from ChEMBL document CHEMBL1143274, “Potent and selective inhibitors of Helicobacter pylori glutamate racemase (MurI): pyridodiazepine amines” (Bioorg Med Chem Lett, 2009).
In brackets after ≈: the same amount, converted by molar mass.

Tests used:
[1] = Protein binding in mouse plasma; assay type: ADME, cell-free; details: read-out: PPB (converted)
[2] = test system: Helicobacter pylori; assay: Antimicrobial activity against Helicobacter pylori SS1 by NCCLS method; assay type: functional
[3] = target: T1, Glutamate racemase (Helicobacter pylori J99, UniProt Q9ZLT0); assay: Inhibition of MurI in wild type Helicobacter pylori J99
T1 sequence (Q9ZLT0 whole entry): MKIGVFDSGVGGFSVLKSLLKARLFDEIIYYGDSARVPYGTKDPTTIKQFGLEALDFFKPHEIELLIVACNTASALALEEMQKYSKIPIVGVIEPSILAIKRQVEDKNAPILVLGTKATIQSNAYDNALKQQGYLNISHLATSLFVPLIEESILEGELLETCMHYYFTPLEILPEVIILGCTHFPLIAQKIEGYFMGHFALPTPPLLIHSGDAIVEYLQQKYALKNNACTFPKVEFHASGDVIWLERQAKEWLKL

[4] = test system: Liver microsomes; assay: Metabolic stability in human liver microsomes assessed as intrinsic clearance; assay type: ADME, Microsome; design: unit not given here
[5] = Metabolic stability in mouse liver microsomes assessed as intrinsic clearance; assay type: ADME, Microsome; design: unit not given here
[6] = Distribution coefficient, log D of the compound; assay type: physicochemical; details: octanol/water
[7] = Inhibition of Staphylococcus aureus MurI
[8] = test system: Escherichia coli; assay: Antimicrobial activity against Escherichia coli; assay type: functional
[9] = test system: Enterococcus faecalis; assay: Antimicrobial activity against Enterococcus faecalis; assay type: functional
[10] = Inhibition of Escherichia coli MurI
[11] = target: T2, Glutamate racemase (Enterococcus faecalis (strain ATCC 700802 / V583), UniProt Q836J0); assay: Inhibition of Enterococcus faecalis MurI
T2 sequence (Q836J0 whole entry): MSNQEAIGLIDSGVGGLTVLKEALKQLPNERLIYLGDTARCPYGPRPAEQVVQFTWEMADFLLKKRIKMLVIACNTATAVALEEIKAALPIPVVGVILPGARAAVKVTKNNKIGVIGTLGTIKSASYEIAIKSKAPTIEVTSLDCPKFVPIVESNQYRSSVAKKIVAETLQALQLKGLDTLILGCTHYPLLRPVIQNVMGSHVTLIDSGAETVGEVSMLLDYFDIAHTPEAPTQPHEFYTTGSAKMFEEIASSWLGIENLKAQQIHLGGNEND

[12] = test system: Staphylococcus aureus; assay: Antimicrobial activity against Staphylococcus aureus; assay type: functional

| SMILES | fraction unbound [1] | MIC [2] [µg/mL] | IC50 [3] [µM] | CL [4] | CL [5] | logD [6] | IC50 [7] [µM] | MIC [8] [µg/mL] | MIC [9] [µg/mL] | IC50 [10] [µM] | IC50 [11] [µM] | MIC [12] [µg/mL] |
| --- | --- | --- | --- | --- | --- | --- | --- | --- | --- | --- | --- | --- |
| CNC1=Nc2ncccc2C(c2cc[nH]c2)=NC1c1cccs1 (stereo not given) | 0.246 | 0.4 (≈ 1.24 µM) | 0.6 | 19 | 36 | – | – | – | – | – | – | – |
| CNC1=Nc2ncccc2C(c2ccco2)=NC1c1cc(C#CC(C)O)cs1 (stereo not given) | 0.091 | 4 (≈ 10.2 µM) | 4.9 | 7 | 17 | – | – | – | – | – | – | – |
| CNC1=Nc2ncccc2C(c2ccccc2)=NC1c1cccs1 (stereo not given) | 0.041 | 0.17 (≈ 0.511 µM) | 2.2 | 40 | 82 | – | – | – | – | – | – | – |
| CNC1=Nc2nc(C)ccc2C(c2ccccc2)=NC1c1cccs1 (stereo not given) | 0.039 | 0.25 (≈ 0.722 µM) | 1.7 | 73 | > 100 | – | – | – | – | – | – | – |
| CNC1=Nc2ncccc2C(c2ncco2)=NC1c1cccs1 (stereo not given) | 0.257 | 1 (≈ 3.09 µM) | 7.7 | < 5 | 19 | – | – | – | – | – | – | – |
| CNC1=Nc2ncccc2C(c2ccns2)=NC1c1cccs1 (stereo not given) | 0.241 | 0.32 (≈ 0.943 µM) | 1.1 | 18 | 37 | – | – | – | – | – | – | – |
| CNC1=Nc2ncccc2C(c2ccco2)=NC1c1cncs1 (stereo not given) | 0.391 | 4 (≈ 12.4 µM) | 8.6 | 22 | 32 | – | – | – | – | – | – | – |
| CNC1=Nc2ncccc2C(c2ccco2)=NC1c1ccco1 (stereo not given) | 0.193 | 8 (≈ 26.1 µM) | 18.5 | 9 | 19 | – | – | – | – | – | – | – |
| NC1=Nc2ccccc2C(c2ccccc2)=NC1c1cccs1 (stereo not given) | 0.02 | 32 (≈ 101 µM) | 400 | > 100 | > 100 | – | – | – | – | – | – | – |
| CCNC1=Nc2ccccc2C(c2ccccc2)=NC1c1cccs1 (stereo not given) | 0.003 | 2 (≈ 5.79 µM) | 1.1 | 46 | > 100 | – | – | – | – | – | – | – |
| CNC1=Nc2ccc(Cl)cc2C(c2ccccc2)=NC1c1cccs1 (stereo not given) | – | 8 (≈ 21.9 µM) | 13 | 52 | > 100 | – | – | – | – | – | – | – |
| COCCNC1=Nc2ccccc2C(c2ccccc2)=NC1c1cccs1 (stereo not given) | – | 32 (≈ 85.2 µM) | 18.9 | 80 | > 100 | – | – | – | – | – | – | – |
| c1ccc(C2=NC(c3cccs3)C(N3CCCC3)=Nc3ccccc32)cc1 (stereo not given) | – | 8 (≈ 21.5 µM) | 4 | 43 | 87 | – | – | – | – | – | – | – |
| CNC1=Nc2ncccc2C(c2cccs2)=NC1c1cccs1 (stereo not given) | 0.03 | 0.25 (≈ 0.739 µM) | 0.7 | 30 | > 100 | – | – | – | – | – | – | – |
| CNC1=Nc2ncccc2C(c2ccco2)=NC1c1cccs1 (stereo not given) | 0.182 | 0.19 (≈ 0.589 µM) | 2 | 13 | 30 | – | – | – | – | – | – | – |
| c1ccc(C2=NC(c3cccs3)C(NC3CC3)=Nc3ccccc32)cc1 (stereo not given) | 0.03 | 8 (≈ 22.4 µM) | 1.1 | 50 | 74 | – | – | – | – | – | – | – |
| CNC1=Nc2ccccc2C(c2ccccc2)=NC1c1cccs1 (stereo not given) | 0.003 | 0.5 (≈ 1.51 µM) | 1.7 | 43 | 97 | 4.1 | > 400 | > 64 | > 64 | > 400 | > 400 | > 64 |
| CNC1=Nc2cncnc2C(c2ccccc2)=NC1c1cccs1 (stereo not given) | 0.158 | 64 (≈ 192 µM) | 50 | 36 | 26 | – | – | – | – | – | – | – |
| CNC1=Nc2ncccc2C(c2ccco2)=NC1c1sccc1Cl (stereo not given) | 0.013 | 0.5 (≈ 1.4 µM) | 2.8 | 74 | > 150 | – | – | – | – | – | – | – |
| CNC1=Nc2ncccc2C(c2ccco2)=NC1c1ccns1 (stereo not given) | 0.264 | 2 (≈ 6.18 µM) | 8.7 | 26 | 27 | – | – | – | – | – | – | – |
| CNC1=Nc2ncccc2C(c2nccs2)=NC1c1cccs1 (stereo not given) | 0.17 | 1 (≈ 2.95 µM) | 1.7 | < 14 | 33 | – | – | – | – | – | – | – |
| CNC1=Nc2ncccc2C(C2CCCC2)=NC1c1cccs1 (stereo not given) | 0.048 | 8 (≈ 24.7 µM) | 4.1 | 59 | > 100 | – | – | – | – | – | – | – |
| CNC1=Nc2c(ccc[n+]2[O-])C(c2ccccc2)=NC1c1cccs1 (stereo not given) | 0.353 | 16 (≈ 45.9 µM) | 67 | < 14 | 41 | – | – | – | – | – | – | – |
| OC1CN(C2=Nc3ccccc3C(c3ccccc3)=NC2c2cccs2)C1 (stereo not given) | 0.01 | 0.25 (≈ 0.669 µM) | – | – | – | – | – | – | – | – | – | – |
| CCCNC1=Nc2ccccc2C(c2ccccc2)=NC1c1cccs1 (stereo not given) | – | 16 (≈ 44.5 µM) | 4 | 30 | > 100 | – | – | – | – | – | – | – |
